Here are results for 26 molecules from ChEMBL document CHEMBL3228010, “Potential antitumor agents. 29. Quantitative structure-activity relationships for the antileukemic bisquaternary ammonium heterocycles” (J Med Chem, 1979).

Where “and” joins values, the source holds several entries; their conditions need not be identical. Identical values can stand only once.

Data set [1] is described as follows: Lipophilic-hydrophilic balance, Rm of the compound by partition chromatography. Type of data set: physicochemical.
Data set [2] relates to L1210. The experiment in a line: Antitumor activity against mouse L1210 cells […] in ip dosed C3H X DBA2 F1 hybrid mouse on day 0 and dosed at LD10 level once daily on days 1 to 5 assessed as increase in life span relative to control. Type of data set: functional.
Data set [3] is described as follows: Displacement of ethidium from poly[d(A-T)]-poly[d(A-T)] DNA by fluorimetric method.
The next data set relates to Mus musculus. Put plainly: Toxicity in ip dosed C3H X DBA2 F1 hybrid mouse […] with mouse L1210 cells on day 0 and dosed once daily on days 1 to 5 measured after 50 days. The conditions noted are these: in vivo, 1200 h. Type of data set: organism-based.
Data set [4] is described as follows: Displacement of ethidium from poly[d(G-C)]-poly[d(G-C)] DNA (unknown origin) by fluorimetric method.
For the next data set, the species on record is Bos taurus. The experiment in a line: Displacement of ethidium from calf thymus DNA by fluorimetric method.
For data set [5], the system named is L1210. The experiment in a line: Antitumor activity against mouse L1210 cells […] in ip dosed C3H X DBA2 F1 hybrid mouse on day 0 and dosed once daily on days 1 to 5 assessed as increase in life span relative to control. Type of data set: functional.

The molecule `C/C(=C(/C)c1ccc(Nc2cc[n+](C)c3ccc(N)cc23)cc1)c1ccc(Nc2cc[n+](C)cc2)cc1.[Cl-].[Cl-]` registered a Rm in data set [1] of 0.96. Moreover, in the data set on L1210 [2], the “log(ILSmax)” value stood at 1.53. Further, the C50 in data set [3] amounted to 0.9 µM; in data set [4] it was 2.6 µM; in the data set listed under Bos taurus, 1.7 µM. In the data set with Mus musculus, this molecule yielded an LD10 of 5.5 mg/kg.
The molecule `CCC[n+]1ccccc1-c1ccc(NC(=O)c2ccc(C(=O)Nc3ccc(-c4cccc[n+]4CCC)cc3)cc2)cc1.Cc1ccc(S(=O)(=O)[O-])cc1.Cc1ccc(S(=O)(=O)[O-])cc1` returned a Rm in data set [1] of 0.4. Besides, the “log(ILSmax)” value with L1210 [2] was less than 1.4. Further, the C50 in data set [3] stood at 0.83 µM; in data set [4], 2.9 µM; in the data set filed under Bos taurus, 2.2 µM. In the data set with Mus musculus, the LD10 stood at 11 mg/kg.
With `Cc1cc(C(=O)Nc2ccc(C(=O)Nc3ccc[n+](C)c3)cc2)c(C)cc1C(=O)Nc1ccc(C(=O)Nc2ccc[n+](C)c2)cc1.Cc1ccc(S(=O)(=O)[O-])cc1.Cc1ccc(S(=O)(=O)[O-])cc1`, the Rm in data set [1] was determined as 0.48. Also, the “log(ILSmax)” value with L1210 [2] amounted to 1.43. Moreover, the C50 was 8.1 µM in data set [3], 14 µM in data set [4] and 7.8 µM in the data set listed under Bos taurus. The molecule further came in with an LD10 in the data set with Mus musculus of 1.7 mg/kg.
Molecule `C[n+]1cccc(NC(=O)c2ccc(NC(=O)c3ccc(C(=O)Nc4ccc(C(=O)Nc5ccc[n+](C)c5)c(Cl)c4)cc3)cc2Cl)c1.Cc1ccc(S(=O)(=O)[O-])cc1.Cc1ccc(S(=O)(=O)[O-])cc1` returned a Rm in data set [1] of 0.2. For the same molecule, the “log(ILSmax)” value in the data set on L1210 [2] is reported as less than 1.4. Further, the results for the C50 (in data set [3]; in data set [4]; in the data set listed under Bos taurus) were 0.99 µM, 2.1 µM and 1.4 µM, respectively. In addition, the LD10 in the data set on Mus musculus was determined as 26 mg/kg.
The molecule `C[n+]1ccc(Nc2ccc(NC(=O)CCCCCCC(=O)Nc3ccc(Nc4cc[n+](C)cc4)cc3)cc2)cc1.[Br-].[Br-]` registered a Rm in data set [1] of 0.59. Further, the “log(ILSmax)” value in the data set with L1210 [2] is listed as less than 1.4. For the same molecule, the values for the C50 (in data set [3]; in data set [4]; in the data set filed under Bos taurus) were 20 µM, 75 µM and 40 µM, respectively. This molecule also returned an LD10 with Mus musculus of 30 mg/kg.
In data set [1], `Cc1cc(Nc2ccc(NC(=O)c3ccc(C(=O)Nc4ccc(C(=O)Nc5ccc[n+](C)c5)cc4)cc3)cc2)nc(N)[n+]1C.[I-].[I-]` came in with a Rm of -0.6. In the data set with L1210 [2], the “log(ILSmax)” value is less than 1.4. Also, the C50 in data set [3] worked out at 0.26 µM; in data set [4] it was 0.49 µM; in the data set filed under Bos taurus it was 0.4 µM. Besides, the LD10 with Mus musculus came to 20 mg/kg.
`C[n+]1ccc(Nc2ccc(NC(=O)CCCCCC(=O)Nc3ccc(Nc4cc[n+](C)cc4)cc3)cc2)cc1.[Br-].[Br-]` showed a Rm in data set [1] of 0.49. Besides, in the data set on L1210 [2], the “log(ILSmax)” value is less than 1.4. Besides, the C50 is 22 µM in data set [3], 77 µM in data set [4] and 42 µM in the data set filed under Bos taurus. The LD10 with Mus musculus came to 30 mg/kg.
In the case of `Cn1cc(NC(=O)c2cc(NC(=O)c3cc(NC=O)cn3C)cn2C)cc1C(=O)NCCC(=N)N`, the C50 in data set [3] is 0.07 µM; in data set [4], 2.4 µM; in the data set listed under Bos taurus, 0.68 µM.
Molecule `CC[n+]1ccc(Nc2ccc(NC(=O)/C=C/c3ccc(C(=O)Nc4ccc(Nc5cc[n+](CC)cc5)c(N)c4)cc3)cc2N)cc1.[Br-].[Br-]` registered a Rm in data set [1] of 0.35. Further, the “log(ILSmax)” value in the data set with L1210 [2] turned out to be 2.3. For the same molecule, the LD10 in the data set on Mus musculus was determined as 7.5 mg/kg. The D40 in the data set on L1210 [5] is 1.4 mg/kg.
The like results for `C[n+]1ccc(Nc2ccc(NC(=O)c3ccc(C(=O)Nc4ccc(C(=O)Nc5ccc[n+](C)c5)cc4)cc3)cc2)cc1.[I-].[I-]` were, in that order, -0.12, 2.12, 4.5 mg/kg and 0.5 mg/kg.
Turning to `CCC[n+]1ccc(Nc2ccc(C(=O)Nc3ccc(/C(C)=N/NC(=N)N)cc3)c(N)c2)c2cc(N)ccc21.Cc1ccc(S(=O)(=O)O)cc1.Cc1ccc(S(=O)(=O)[O-])cc1`, the Rm in data set [1] was determined as 0.07. For the same molecule, in the data set on L1210 [2], the “log(ILSmax)” value turned out to be 2.2. In the data set with Mus musculus, the LD10 came out at 60 mg/kg. In the data set with L1210 [5], the D40 turned out to be 10 mg/kg.
`CCC[n+]1cccc2cc(NC(=O)c3ccc(C(=O)Nc4ccc5c(ccc[n+]5CCC)c4)c(N)c3)ccc21.Cc1ccc(S(=O)(=O)[O-])cc1.Cc1ccc(S(=O)(=O)[O-])cc1` returned a Rm in data set [1] of 0.25. Further, the “log(ILSmax)” value with L1210 [2] amounted to 1.92. In addition, the LD10 with Mus musculus was determined as 10 mg/kg. The D40 in the data set on L1210 [5] came out at 3.9 mg/kg.
For `CCCCC[n+]1cccc2cc(NC(=O)c3ccc(C(=O)Nc4ccc5c(ccc[n+]5CCCCC)c4)c(N)c3)ccc21.Cc1ccc(S(=O)(=O)[O-])cc1.Cc1ccc(S(=O)(=O)[O-])cc1`, in that order: 0.85, 1.51, 16 mg/kg and 15 mg/kg.
As for `CCCC[n+]1cccc2cc(NC(=O)COc3ccc(C(=O)Nc4ccc5c(ccc[n+]5CCCC)c4)cc3)ccc21.Cc1ccc(S(=O)(=O)[O-])cc1.Cc1ccc(S(=O)(=O)[O-])cc1`, the Rm in data set [1] is recorded as 0.41. For the same molecule, in the data set with L1210 [2], the “log(ILSmax)” value is given as 1.96. Moreover, the LD10 in the data set on Mus musculus was determined as 210 mg/kg. In addition, the D40 in the data set on L1210 [5] turned out to be 80 mg/kg.
For `CC[n+]1cccc(NC(=O)c2ccc(NC(=O)c3ccc(C(=O)Nc4ccc(C(=O)Nc5ccc[n+](CC)c5)c(N)c4)c(N)c3)cc2N)c1.Cc1ccc(S(=O)(=O)[O-])cc1.Cc1ccc(S(=O)(=O)[O-])cc1`, in that order: -0.9, 2.29, 14 mg/kg and 2.6 mg/kg.
For `CCC[n+]1cccc(NC(=O)c2ccc(NC(=O)c3ccc(C(=O)Nc4ccc5c(ccc[n+]5CCC)c4)cc3)cc2)c1.Cc1ccc(S(=O)(=O)[O-])cc1.Cc1ccc(S(=O)(=O)[O-])cc1`, in that order: 0.44, 2.17, 20 mg/kg and 10.2 mg/kg.
The like results for `CCC[n+]1cccc(NC(=O)c2ccc(NC(=O)c3ccc(C(=O)Nc4ccc(C(=O)Nc5ccc[n+](CCC)c5)c(N)c4)cc3)cc2N)c1.Cc1ccc(S(=O)(=O)[O-])cc1.Cc1ccc(S(=O)(=O)[O-])cc1` were, in that order, -0.38, 2.02, 30 mg/kg and 5 mg/kg.
Regarding `CCC[n+]1cccc2cc(NC(=O)c3ccc(-c4ccc(-c5ccc(-c6ccc(C(=O)Nc7ccc8c(ccc[n+]8CCC)c7)cc6)cc5)cc4)cc3)ccc21.Cc1ccc(S(=O)(=O)[O-])cc1.Cc1ccc(S(=O)(=O)[O-])cc1`, the Rm in data set [1] is listed as 0.49. In addition, in the data set with L1210 [2], the “log(ILSmax)” value is 2.01. Further, the LD10 in the data set with Mus musculus was found to be 45 mg/kg. The D40 in the data set on L1210 [5] worked out at 17 mg/kg.
For `CC[n+]1ccc(Nc2ccc(NC(=O)/C=C/c3ccc(/C=C/C(=O)Nc4ccc(Nc5cc[n+](CC)cc5)cc4)cc3)cc2)cc1.Cc1ccc(S(=O)(=O)[O-])cc1.Cc1ccc(S(=O)(=O)[O-])cc1`, in that order: -0.05, 1.88, 32 mg/kg and 9 mg/kg.
The like results for `CC[n+]1ccc(Nc2ccc(NC(=O)/C=C/c3ccc(C(=O)Nc4ccc(Nc5cc[n+](CC)cc5)cc4)cc3)cc2)cc1.Cc1ccc(S(=O)(=O)[O-])cc1.Cc1ccc(S(=O)(=O)[O-])cc1` were, in that order, -0.03, 2.2, 8 mg/kg and 1.6 mg/kg.
Turning to `CC[n+]1cccc2cc(NC(=O)c3ccc(NC(=O)c4ccc(C(=O)Nc5ccc6c(ccc[n+]6CC)c5)cc4)cc3)ccc21.Cc1ccc(S(=O)(=O)[O-])cc1.Cc1ccc(S(=O)(=O)[O-])cc1`, the Rm in data set [1] is given as -0.52. In addition, the “log(ILSmax)” value with L1210 [2] came to 2.05. In the data set with Mus musculus, this molecule returned an LD10 of 45 mg/kg. For the same molecule, the D40 in the data set on L1210 [5] is 13 mg/kg.
For `CCC[n+]1ccc(Nc2ccc(NC(=O)c3ccc(Nc4cc[n+](CCC)c5ccccc45)cc3N)cc2)cc1.[I-].[I-]`, in that order: 0.71, 1.6, 24 mg/kg and 24 mg/kg.
In the case of `CC[n+]1cccc(NC(=O)c2ccc(NC(=O)c3ccc(C(=O)Nc4ccc(C(=O)Nc5ccc[n+](CC)c5)cc4)c(C)c3)cc2)c1.Cc1ccc(S(=O)(=O)[O-])cc1.Cc1ccc(S(=O)(=O)[O-])cc1`, the Rm in data set [1] is 0.38. For the same molecule, the “log(ILSmax)” value with L1210 [2] is recorded as 1.85. The same molecule showed an LD10 with Mus musculus of 26 mg/kg. Further, the D40 in the data set on L1210 [5] was determined as 9.6 mg/kg.
Regarding `CC[n+]1cccc(NC(=O)c2ccc(NC(=O)c3ccc(C(=O)Nc4ccc(C(=O)Nc5ccc[n+](CC)c5)c(N)c4)cc3)cc2N)c1.Cc1ccc(S(=O)(=O)[O-])cc1.Cc1ccc(S(=O)(=O)[O-])cc1`, the Rm in data set [1] is -0.65. Besides, in the data set with L1210 [2], the “log(ILSmax)” value is given as 2.18. Also, in the data set on Mus musculus, the LD10 amounted to 10 mg/kg. Also, the D40 with L1210 [5] turned out to be 3.2 mg/kg.
Consider `C[n+]1ccc(Nc2ccc(NC(=O)c3ccc(C(=O)Nc4ccc(C(=O)Nc5ccc[n+](C)c5)cc4)cc3)cc2)cc1`, for which the C50 was 0.34 µM and 0.44 µM in data set [3]; 0.97 µM and 1.35 µM in data set [4]; 0.63 µM and 0.84 µM in the data set filed under Bos taurus.
With `CC[n+]1ccc(-c2ccc(NC(=O)c3ccc(Nc4cc[n+](CC)c5ccccc45)cc3)cc2)cc1.Cc1ccc(S(=O)(=O)[O-])cc1.Cc1ccc(S(=O)(=O)[O-])cc1`, the Rm in data set [1] came to 0.55. Also, in the data set with L1210 [2], the “log(ILSmax)” value came out at 1.98. For the same molecule, the LD10 in the data set with Mus musculus was determined as 10 mg/kg. In addition, in the data set with L1210 [5], the D40 turned out to be 2.7 mg/kg.
